# Key:
# [1] = test system: wild oat; experiment: Test Example 5: herbicidal effect by foliage application, plastic box (Table 20, symbol I); format: in vivo, wild oat (Avena fatua); conditions: foliage application, 320 g/ha, 3 weeks after application
# In short: (§1)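 Plants sown in sterilized diluvial soil and grown 14 days in a greenhouse at 25° C to 30° C, then sprayed on the foliage with the compound's emulsion diluted in water to a predetermined herbicide amount. Injury to weeds and crops scored three weeks after application on a visual rating scale.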
# [2] = test system: Italian ryegrass; experiment: Test Example 5: herbicidal effect by foliage application, plastic box (Table 20, symbol K); format: in vivo, Italian ryegrass (Lolium multiflorum); conditions: foliage application, 320 g/ha, 3 weeks after application
# In short: as §1
# [3] = test system: green foxtail; experiment: Test Example 5: herbicidal effect by foliage application, plastic box (Table 20, symbol G); format: in vivo, green foxtail (Setaria viridis); conditions: foliage application, 320 g/ha, 3 weeks after application
# In short: as §1
# [4] = test system: persian speedwell; experiment: Test Example 4: herbicidal effect by soil treatment (Table 19, symbol R); format: in vivo, Persian speedwell (Veronica persica); conditions: AAH 320 g/ha
# In short: (§2)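 Seeds were sown in sterilized diluvial soil and covered with about 1.5 cm of soil. An emulsion formulation diluted with water to a predetermined herbicide amount was sprayed evenly onto the soil surface. Plants grew in a greenhouse at 25° C. to 30° C., and the effect was scored three weeks after application using criteria from an earlier test.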
# [5] = test system: rice flat sedge; experiment: Test Example 3: herbicidal effect by foliage application, Wagner pot (Table 18, symbol E); format: in vivo, rice flat sedge (Cyperus iria); conditions: 320 g/ha
# In short: (§3)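 Plants were sown in alluvial soil held under 0.1–0.5 cm standing water and grown 14 days in a greenhouse at 25–30 °C. An emulsifiable formulation, water-diluted to the set dose, was then sprayed onto the foliage, and effects were scored three weeks later using previously defined criteria.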
# [6] = test system: southern crabgrass; experiment: Test Example 4: herbicidal effect by soil treatment (Table 19, symbol F); format: in vivo, southern crabgrass (Digitaria ciliaris); conditions: AAH 320 g/ha
# In short: as §2
# [7] = test system: Italian ryegrass; experiment: Test Example 4: herbicidal effect by soil treatment (Table 19, symbol K); format: in vivo, Italian ryegrass (Lolium multiflorum); conditions: AAH 320 g/ha
# In short: as §2
# [8] = test system: green foxtail; experiment: Test Example 4: herbicidal effect by soil treatment (Table 19, symbol G); format: in vivo, green foxtail (Setaria viridis); conditions: AAH 320 g/ha
# In short: as §2
# [9] = test system: windgrass; experiment: Test Example 5: herbicidal effect by foliage application, plastic box (Table 20, symbol L); format: in vivo, windgrass (Apera spica-venti); conditions: foliage application, 320 g/ha, 3 weeks after application
# In short: as §1
# [10] = test system: lambsquarters; experiment: Test Example 5: herbicidal effect by foliage application, plastic box (Table 20, symbol O); format: in vivo, lambsquarters (Chenopodium album); conditions: foliage application, 320 g/ha, 3 weeks after application
# In short: as §1
# [11] = test system: Chinese sprangletop; experiment: Test Example 3: herbicidal effect by foliage application, Wagner pot (Table 18, symbol D); format: in vivo, chinese sprangletop (Leptochloa chinensis); conditions: 320 g/ha
# In short: as §3
# [12] = test system: redroot pigweed; experiment: Test Example 4: herbicidal effect by soil treatment (Table 19, symbol N); format: in vivo, redroot pigweed (Amaranthus retroflexus); conditions: AAH 320 g/ha
# In short: as §2
# [13] = test system: lambsquarters; experiment: Test Example 4: herbicidal effect by soil treatment (Table 19, symbol O); format: in vivo, lambsquarters (Chenopodium album); conditions: AAH 320 g/ha
# In short: as §2
# [14] = test system: barnyard grass; experiment: Test Example 3: herbicidal effect by foliage application, Wagner pot (Table 18, symbol H); format: in vivo, barnyard grass (Echinochloa crus-galli); conditions: 320 g/ha
# In short: as §3
# [15] = test system: velvetleaf; experiment: Test Example 4: herbicidal effect by soil treatment (Table 19, symbol M); format: in vivo, velvetleaf (Abutilon theophrasti); conditions: AAH 320 g/ha
# In short: as §2
# [16] = test system: southern crabgrass; experiment: Test Example 5: herbicidal effect by foliage application, plastic box (Table 20, symbol F); format: in vivo, southern crabgrass (Digitaria ciliaris); conditions: foliage application, 320 g/ha, 3 weeks after application
# In short: as §1
# [17] = test system: velvetleaf; experiment: Test Example 5: herbicidal effect by foliage application, plastic box (Table 20, symbol M); format: in vivo, velvetleaf (Abutilon theophrasti); conditions: foliage application, 320 g/ha, 3 weeks after application
# In short: as §1
# [18] = test system: barnyard grass; experiment: Test Example 4: herbicidal effect by soil treatment (Table 19, symbol H); format: in vivo, barnyard grass (Echinochloa crus-galli); conditions: AAH 320 g/ha
# In short: as §2
# [19] = test system: persian speedwell; experiment: Test Example 5: herbicidal effect by foliage application, plastic box (Table 20, symbol R); format: in vivo, Persian speedwell (Veronica persica); conditions: foliage application, 320 g/ha, 3 weeks after application
# In short: as §1
# [20] = test system: barnyard grass; experiment: Test Example 5: herbicidal effect by foliage application, plastic box (Table 20, symbol H); format: in vivo, barnyard grass (Echinochloa crus-galli); conditions: foliage application, 320 g/ha, 3 weeks after application
# In short: as §1
# [21] = test system: blackgrass; experiment: Test Example 5: herbicidal effect by foliage application, plastic box (Table 20, symbol J); format: in vivo, blackgrass (Alopecurus myosuroides); conditions: foliage application, 320 g/ha, 3 weeks after application
# In short: as §1
# [22] = test system: windgrass; experiment: Test Example 4: herbicidal effect by soil treatment (Table 19, symbol L); format: in vivo, windgrass (Apera spica-venti); conditions: AAH 320 g/ha
# In short: as §2
# [23] = test system: wild oat; experiment: Test Example 4: herbicidal effect by soil treatment (Table 19, symbol I); format: in vivo, wild oat (Avena fatua); conditions: AAH 320 g/ha
# In short: as §2
# [24] = test system: chickweed; experiment: Test Example 4: herbicidal effect by soil treatment (Table 19, symbol P); format: in vivo, common chickweed (Stellaria media); conditions: AAH 320 g/ha
# In short: as §2
# [25] = test system: blackgrass; experiment: Test Example 4: herbicidal effect by soil treatment (Table 19, symbol J); format: in vivo, blackgrass (Alopecurus myosuroides); conditions: AAH 320 g/ha
# In short: as §2
compound,measurement,setting,value
Cc1nn(C)c(=O)c(-c2c(-c3ccc(O)cc3)sc3ccccc23)c1O [1-200],effect on wild oat (I),[1],0 (Herbicidal rate of 5% or less (almost no effect))
same,effect on Italian ryegrass (K),[2],1 (Herbicidal rate of 5% or more and less than 20%)
same,effect on green foxtail (G),[3],3 (Herbicidal rate of 40% or more and less than 70%)
same,"R: persian speedwell, herbicidal effect rating",[4],3 (Herbicidal rate of 40% or more and less than 70%)
same,"herbicidal effect on E (rice flat sedge), rating 0-5",[5],3 (Herbicidal rate of 40% or more and less than 70%)
same,"F: southern crabgrass, herbicidal effect rating",[6],0 (Herbicidal rate of 5% or less (almost no effect))
same,"K: Italian ryegrass, herbicidal effect rating",[7],0 (Herbicidal rate of 5% or less (almost no effect))
same,"G: green foxtail, herbicidal effect rating",[8],0 (Herbicidal rate of 5% or less (almost no effect))
same,effect on windgrass (L),[9],0 (Herbicidal rate of 5% or less (almost no effect))
same,effect on lambsquarters (O),[10],4 (Herbicidal rate of 70% or more and less than 90%)
same,"herbicidal effect on D (Chinese sprangletop), rating 0-5",[11],3 (Herbicidal rate of 40% or more and less than 70%)
same,"N: redroot pigweed, herbicidal effect rating",[12],0 (Herbicidal rate of 5% or less (almost no effect))
same,"O: lambsquarters, herbicidal effect rating",[13],0 (Herbicidal rate of 5% or less (almost no effect))
same,"herbicidal effect on H (barnyard grass), rating 0-5",[14],4 (Herbicidal rate of 70% or more and less than 90%)
same,"M: velvetleaf, herbicidal effect rating",[15],0 (Herbicidal rate of 5% or less (almost no effect))
same,effect on southern crabgrass (F),[16],3 (Herbicidal rate of 40% or more and less than 70%)
same,effect on velvetleaf (M),[17],5 (Herbicidal rate of 90% or more (almost completely withered))
same,"H: barnyard grass, herbicidal effect rating",[18],0 (Herbicidal rate of 5% or less (almost no effect))
same,effect on persian speedwell (R),[19],5 (Herbicidal rate of 90% or more (almost completely withered))
same,effect on barnyard grass (H),[20],4 (Herbicidal rate of 70% or more and less than 90%)
same,effect on blackgrass (J),[21],0 (Herbicidal rate of 5% or less (almost no effect))
same,"L: windgrass, herbicidal effect rating",[22],0 (Herbicidal rate of 5% or less (almost no effect))
same,"I: wild oat, herbicidal effect rating",[23],0 (Herbicidal rate of 5% or less (almost no effect))
same,"P: chickweed, herbicidal effect rating",[24],1 (Herbicidal rate of 5% or more and less than 20%)
same,"J: blackgrass, herbicidal effect rating",[25],0 (Herbicidal rate of 5% or less (almost no effect))
